Experimental data reported in patent publication US4931292A, “Method of preparing iron(III) phosphate compounds for iron fortification of food products” (EKA Nobel AB, priority 1986, dated 1990).
“Also recorded” adds a separate entry of the source.

Assays:
[1] = Examination of bioavailability in humans: absorption of 55Fe-labelled iron compound and 59Fe-labelled native iron from iron-fortified buns; type: in vivo; settings: for Absorption, Fortification: fortification iron (55Fe)
Protocol: The examination was carried out by the technique described in the above-mentioned paper by Hallberg et al.
The iron compound to be tested is labelled with radioactive iron, ^55 Fe, in the synthesis of the compound used. This iron is used to fortify flour from which buns are made by standard procedures, for example as follows: ______________________________________ Ingredients Parts by weight ______________________________________ wheat-flour 100 sugar 3.5 salt 1.0 yeast 6.5 water 83 iron source 6.5 ^- 10^-3 ______________________________________
The iron occurring naturally (native iron) in wheat-flour is labelled by adding tracer amounts of ^59 Fe-labelled iron(III)chloride. The buns are thus made of flour which is labelled with two different radioactive isotopes.
The ingredients are mixed, and the dough is allowed to rise for 30 minutes. After the usual kneading, the dough is placed in small aluminium baking tins where the dough pieces are allowed to rise for another 30 minutes. The dough pieces in the baking tins are subsequently baked at a temperature of 250° C. for 10 minutes
These double-labelled buns are served a group of test subjects, for breakfast with coffee, margarine and marmalade two successive mornings after a night's fast. No food or beverage is allowed for three hours after breakfast. Two weeks after the last breakfast, blood tests are made to measure the occurrence of ^55 Fe and ^59 Fe in blood. Furthermore,the totally absorbed amount of ^59 Fe in the body is measured by a so-called total-body counter Via the ratio of ^59 Fe to ^55 Fe in blood samples, also the totally absorbed amount of ^55 Fe can be determined.
Subsequently, a reference solution is administered, consisting of ^59 Fe-labelled iron(II)sulphate and ascorbic acid at two successive breakfasts after a night's fast. No food or beverage is allowed for three hours thereafter. Another two weeks later, a new total-body measurement is made to measure the absorption of the reference dose. The reference solution is administered to make it possible to carry out corrections with regard to differences in the iron absorbing capability of the different test subjects.
The amount of ^59 Fe which is added as ^59 FeCl3 to the wheat-flour, isotope-labels by so-called isotopic exchange all biologically available nonheme iron (=non-blood iron) in the meals analysed, i.e. on the one hand the native iron and, on the other hand, the part of the fortification iron which is dissolved. However, that part of the fortification iron which is not dissolved in the gastrointestinal tract, is not labelled. […]

[2] = humans; literature or background statement; cited from earlier work
[3] = Solubility in artificial gastric environment (0.1M HCl, pH 1, 37° C.); type: physicochemical; settings: for % Solubility 10 min / % Solubility 30 min / % Solubility 60 min: 0.1M HCl, pH=1, 37° C.; for solubility at pH 1 / in 0.1M HCl / gastric environment (in words): pH 1 (0.1M HCl)
Protocol: Here, solubility tests for some commercially used iron(III)phosphates have also been included.
The compound examined in Example 1 was also measured as a reference substance (compound A)

[4] = 40 g buns, 0.2 mg native iron, 2.2 mg fortification iron, ten persons

Molecule	absorbability / bioavailability [2]	% Solubility 10 min [3]	% Solubility 30 min [3]	% Solubility 60 min [3]	solubility at pH 1 / in 0.1M HCl / gastric environment (in words) [3]	also measured
O=P([O-])([O-])[O-].[Fe+3] [Common iron(III)phosphate, iron(III)phosphate, reference compound]						Absorption, Fortification ([1]; 60 g buns, 0.5 mg native iron, 3 mg fortification iron, ten persons): 1.1%
O=S(=O)([O-])[O-].[Fe+2] [iron(II)sulphate]	highest absorbability; also recorded: high bioavailability in the human body					
O=P([O-])([O-])[O-].[Fe+3] [iron(III)orthophosphate]	questionable in respect to the bioavailability of iron					
O=P([O-])([O-])OP(=O)([O-])O.[Fe+2].[Na+] [sodium iron pyrophosphate]	questionable in respect to the bioavailability of iron					
Fe3 H8 (NH4)(PO4)6 .multidot.6H2 O [Compound A]		86%	100%	100%		Relative bioavailability 55Fe/59Fe [1, 4]: 0.63 ± 0.04; Absorption, Fortification [1, 4]: 3.3%; bioavailability (in words) ([1]; humans): far better bioavailability than both the commercial fortifying agent which is to date most frequently used, i.e. iron powder, and the known commercial fortifying agent which, in structural respect, is its closest relation, i.e. common iron(III)phosphate
Fe3 H8 K(PO4)6 .multidot.6H2 O [Compound E]		5%	39%	72%	low initial solubility but reached, after some time, relatively good values	
Fe5 H8 Na4 (PO4)9 .multidot.10H2 O [Compound C]		70%	93%	100%	approximately the same good solubility properties as the ammonium-containing compound A	
FeH2 Na(PO4)2 .multidot.0.5H2 O [Compound D]		61%	92%	100%	approximately the same good solubility properties as the ammonium-containing compound A	
FeH5 Na(PO4)3 .multidot.H2 O [Compound B]		82%	97%	100%	approximately the same good solubility properties as the ammonium-containing compound A	
